The values that follow come from patent publication US20110033393A1, “Hydrazone Compounds and Their Use” (priority 2009, published 2011).

The subject of this assay is GLUTag cells. Briefly: GLP-1 release using GLUTag cells (Assay 1). The assay is classed as cell-based, mouse. The procedure: Mouse GLUTag cells are a native intestinal cell line which expresses TRPM5. The cell line was obtained from Dr. Daniel J. Drucker in the Division of Endocrinology, Department of Medicine, at University of Toronto, and grown in Invitrogen Dulbecco's Modified Eagle's Medium (DMEM) high glucose (Cat#: 11995) with 10% fetal bovine serum (FBS) and 1× penn/strep antibiotic mix in a 37° C. incubator with 5% CO2.
Assay 1: All reagents and media were pre-warmed to room temperature prior to the beginning of the experiment.
Seeding of Cell Plate: BD 96-well Matrigel-coated plates (Fisher, Cat #: 08-774-166) were rehydrated using 100 μL of plating media (Invitrogen Cat #: 31985) OPTI-Modified Eagle's Medium (MEM) with 10% FBS and 1× penn/strep antibiotic mix and incubated for 30 minutes in a 37° C. incubator and 5% CO2. The rehydration media was aspirated and GLUTag cells were plated at 100 ul per well at a density of 7.5×10^5 cells/ml. The plates were then incubated overnight in a 37° C. incubator and 5% CO2.
The following protocol utilized the Millipore GLP-1 ELISA Kit (Cat. #: EGLP-35K) to analyze GLP-1 secretion from GLUTag cells in the presence of TRPM5 inhibitors/enhancers and glucose.
ELISA Assay Day 1: Stock solutions and dilution plates of TRPM5 inhibitors or enhancers were prepared. […]

Regarding `Cc1cc(/C=N/NC(=O)C2CC2c2ccccc2)cc2cccnc12` (racemic) [Example 10, trans-N′-((8-Methylquinolin-6-yl)methylene)-2-phenylcyclopropanecarbohydrazide], the GLP-1 secretion entry (in the presence of 0.1 mM glucose) is reported as “is not observed” and the GLP-1 secretion entry (in the presence of 0.3 mM glucose) was “dose-dependent increase of GLP-1 secretion”.
